Assay results as given in the NIST ThermoML archive (doi:10.1021/je060271a).

Conditions: 323.14 K, Liquid, Vibrating tube method

CCCCCCC(=O)OCC(COC(=O)CCCCCC)(COC(=O)CCCCCC)COC(=O)CCCCCC [pentaerythritol tetraheptanoate]
Conditions	mass density [kg/m3]
18264 kPa	967.6
18279 kPa	967.6
18292 kPa	967.7
18304 kPa	967.6
18320 kPa	967.6
18332 kPa	967.6
18347 kPa	967.6
18360 kPa	967.7
18373 kPa	967.7
18385 kPa	967.8
18401 kPa	967.7
18413 kPa	967.8
18426 kPa	967.6
18442 kPa	967.8
18454 kPa	967.7
18469 kPa	967.7
18482 kPa	967.7
18495 kPa	967.7
18511 kPa	967.7
18920 kPa	967.9
18933 kPa	968
18964 kPa	968.1
19110 kPa	968.3
19518 kPa	968.3
19532 kPa	968.3
19550 kPa	968.4
19962 kPa	968.7
20010 kPa	968.7
20615 kPa	969.1
20951 kPa	969.3
20968 kPa	969.2
21002 kPa	969.4
21114 kPa	969.2
21149 kPa	969.4
21166 kPa	969.4
21187 kPa	969.4
21204 kPa	969.5
21222 kPa	969.3
21243 kPa	969.4
21261 kPa	969.4
21812 kPa	969.9
21889 kPa	969.8
21912 kPa	969.9
22010 kPa	969.9
22028 kPa	970
22051 kPa	969.9
22255 kPa	970
22294 kPa	970.1
22673 kPa	970.3
22693 kPa	970.2
22738 kPa	970.5
22934 kPa	970.5
22955 kPa	970.5
22976 kPa	970.5
23001 kPa	970.4
23022 kPa	970.6
23064 kPa	970.5
23111 kPa	970.6
23132 kPa	970.6
23157 kPa	970.6
23178 kPa	970.5
23200 kPa	970.6
23225 kPa	970.5
23246 kPa	970.5
23268 kPa	970.7
23294 kPa	970.7
23315 kPa	970.7
23358 kPa	970.7
23384 kPa	970.8
23431 kPa	970.8
23453 kPa	970.8
23474 kPa	970.7
23496 kPa	970.9
23522 kPa	970.8
23544 kPa	970.8
23566 kPa	970.8
23592 kPa	970.8
23614 kPa	970.8
23755 kPa	971
23777 kPa	970.9
23805 kPa	971.1
23827 kPa	971
23853 kPa	970.9
23875 kPa	971
23898 kPa	971.1
23921 kPa	971
23948 kPa	971
24439 kPa	971.4
24490 kPa	971.3
24592 kPa	971.5
24645 kPa	971.6
24693 kPa	971.5
24722 kPa	971.5
24746 kPa	971.5
24799 kPa	971.6
24824 kPa	971.6
24848 kPa	971.6
24874 kPa	971.5
24903 kPa	971.6
24928 kPa	971.6
24957 kPa	971.7
24981 kPa	971.5
25006 kPa	971.7
25031 kPa	971.8
25061 kPa	971.7
25387 kPa	971.9
25413 kPa	972
25633 kPa	972.1
25717 kPa	972
25828 kPa	972
25860 kPa	972.3
25888 kPa	972.3
